Data published in patent US20250179078A1, “INHIBITORS OF NLRP3” (PTC THERAPEUTICS, INC., priority 2022, published 2025).

target: T1, NLRP3 (Homo sapiens, UniProt Q96P20); test: IL-1β Secretion Assay (NLRP3-dependent IL1β secretion in THP1 cells); type: cell-based; settings: PMA-differentiated THP-1 cells; compounds incubated 20 h; 2.5 μM Nigericin 3 h; HTRF IL-1β readout; read-out: IC50 IL-1β Inhibition
T1 construct: host or cells: THP-1 cells differentiated with PMA
In short: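 IL-1β in conditioned media, measured by HTRF after 3 h 2.5 μM nigericin stimulation, gave % inhibition fitted logistically for IC50. Before that, PMA-differentiated (100 ng/mL, 24 h) THP-1 cells were preincubated 20 h with 7 compound concentrations (3-fold serial, DMSO 1:200).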

T1 sequence (Q96P20 whole entry): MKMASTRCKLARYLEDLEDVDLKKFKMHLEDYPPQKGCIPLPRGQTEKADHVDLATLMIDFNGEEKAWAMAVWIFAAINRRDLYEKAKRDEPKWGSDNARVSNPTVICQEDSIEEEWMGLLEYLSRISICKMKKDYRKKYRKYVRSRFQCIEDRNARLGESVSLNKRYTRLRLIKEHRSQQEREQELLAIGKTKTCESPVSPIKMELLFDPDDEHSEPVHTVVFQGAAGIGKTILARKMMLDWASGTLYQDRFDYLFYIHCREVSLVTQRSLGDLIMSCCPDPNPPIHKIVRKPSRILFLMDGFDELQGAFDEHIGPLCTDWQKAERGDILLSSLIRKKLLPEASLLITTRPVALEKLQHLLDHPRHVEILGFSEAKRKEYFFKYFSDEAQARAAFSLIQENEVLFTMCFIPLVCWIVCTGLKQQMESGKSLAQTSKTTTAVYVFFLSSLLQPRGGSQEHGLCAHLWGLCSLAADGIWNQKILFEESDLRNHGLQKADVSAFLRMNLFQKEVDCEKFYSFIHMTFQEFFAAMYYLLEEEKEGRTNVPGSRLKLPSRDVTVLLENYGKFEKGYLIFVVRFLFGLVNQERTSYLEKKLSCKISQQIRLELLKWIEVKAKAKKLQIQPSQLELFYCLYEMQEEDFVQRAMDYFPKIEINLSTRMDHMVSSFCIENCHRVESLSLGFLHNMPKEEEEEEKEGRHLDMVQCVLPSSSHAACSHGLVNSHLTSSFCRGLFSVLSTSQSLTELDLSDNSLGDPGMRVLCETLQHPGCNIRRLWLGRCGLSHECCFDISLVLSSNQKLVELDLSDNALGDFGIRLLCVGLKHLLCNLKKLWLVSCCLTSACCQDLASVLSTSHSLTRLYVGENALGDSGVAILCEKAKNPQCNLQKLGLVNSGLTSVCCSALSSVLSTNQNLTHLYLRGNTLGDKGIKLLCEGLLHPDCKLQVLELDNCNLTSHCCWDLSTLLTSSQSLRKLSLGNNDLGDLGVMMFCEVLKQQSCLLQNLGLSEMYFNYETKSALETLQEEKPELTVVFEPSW

Structure (SMILES)	IC50
COc1ccc(-c2nnc(N[C@@H]3CCCN(C)C3)n3cncc23)c(OC(F)F)c1 [Compound 216, 1-[2-(difluoromethoxy)-4-methoxyphenyl]-N-[(3R)-1-methylpiperidin-3-yl]imidazo[1,5-d][1,2,4]triazin-4-amine]	0.001 to 0.01 µM
CN1CCC[C@@H](Nc2nnc(-c3ccc(C(F)(F)F)cc3C(F)(F)F)c3cncn23)C1 [Compound 217, 1-[2,4-bis(trifluoromethyl)phenyl]-N-[(3R)-1-methylpiperidin-3-yl]imidazo[1,5-d][1,2,4]triazin-4-amine]	< 0.001 µM
C[C@]1(O)C[C@@H](Nc2nnc(-c3ccc(C(F)(F)F)cc3C(F)(F)F)c3cncn23)C1 [Compound 218, (1s,3s)-3-({1-[2,4-bis(trifluoromethyl)phenyl]imidazo[1,5-d][1,2,4]triazin-4-yl}amino)-1-methylcyclobutan-1-ol]	0.001 to 0.01 µM
COc1ccc(-c2nnc(N[C@H]3C[C@@](C)(O)C3)n3cncc23)c(OC(F)(F)F)c1 [Compound 219, (1s,3s)-3-({1-[4-methoxy-2-(trifluoromethoxy)phenyl]imidazo[1,5-d][1,2,4]triazin-4-yl}amino)-1-methylcyclobutan-1-ol]	0.001 to 0.01 µM
COc1ccc(-c2nnc(Nc3cc[nH]n3)n3cncc23)c(OC(F)(F)F)c1 [Compound 220, 1-[4-methoxy-2-(trifluoromethoxy)phenyl]-N-(1H-pyrazol-3-yl)imidazo[1,5-d][1,2,4]triazin-4-amine]	0.1 to 0.3 µM
COc1ccc(-c2nnc(N[C@@H]3CCC[C@H]3O)n3cncc23)c(OC(F)(F)F)c1 [Compound 221, (1R,2R)-2-({1-[4-methoxy-2-(trifluoromethoxy)phenyl]imidazo[1,5-d][1,2,4]triazin-4-yl}amino)cyclopentan-1-ol]	0.01 to 0.1 µM
COc1ccc(-c2nnc(N[C@@H]3CCC[C@H](O)C3)n3cncc23)c(OC(F)(F)F)c1 [Compound 222, (1S,3R)-3-({1-[4-methoxy-2-(trifluoromethoxy)phenyl]imidazo[1,5-d][1,2,4]triazin-4-yl}amino)cyclohexan-1-ol]	0.001 to 0.01 µM
COc1ccc(-c2nnc(N[C@@H]3CCCC[C@H]3O)n3cncc23)c(OC(F)(F)F)c1 [Compound 223, (1R,2R)-2-({1-[4-methoxy-2-(trifluoromethoxy)phenyl]imidazo[1,5-d][1,2,4]triazin-4-yl}amino)cyclohexan-1-ol]	0.001 to 0.01 µM
COc1ccc(-c2nnc(N[C@@H]3C[C@@H](F)CN(C)C3)n3cncc23)c(OC(F)F)c1 [Compound 224, 1-[2-(difluoromethoxy)-4-methoxyphenyl]-N-[(3R,5R)-5-fluoro-1-methylpiperidin-3-yl]imidazo[1,5-d][1,2,4]triazin-4-amine]	0.001 to 0.01 µM
COc1ccc(-c2nnc(N[C@@H]3CCCN(CCO)C3)n3cncc23)c(OC(F)F)c1 [Compound 225, 2-[(3R)-3-({1-[2-(difluoromethoxy)-4-methoxyphenyl]imidazo[1,5-d][1,2,4]triazin-4-yl}amino)piperidin-1-yl]ethan-1-ol]	0.001 to 0.01 µM
COc1ccc(-c2nnc(N[C@H]3C[C@@](C)(O)C3)n3cncc23)c(OC(F)F)c1 [Compound 226, (1s,3s)-3-({1-[2-(difluoromethoxy)-4-methoxyphenyl]imidazo[1,5-d][1,2,4]triazin-4-yl}amino)-1-methylcyclobutan-1-ol]	0.01 to 0.1 µM
COc1ccc(-c2nnc(Nc3cc[nH]n3)n3cncc23)c(OC(F)F)c1 [Compound 227, 1-[2-(difluoromethoxy)-4-methoxyphenyl]-N-(1H-pyrazol-3-yl)imidazo[1,5-d][1,2,4]triazin-4-amine]	0.01 to 0.1 µM
COc1ccc(-c2nnc(Nc3cc[nH]n3)n3cncc23)c(C(F)(F)F)c1 [Compound 228, 1-[4-methoxy-2-(trifluoromethyl)phenyl]-N-(1H-pyrazol-3-yl)imidazo[1,5-d][1,2,4]triazin-4-amine]	0.01 to 0.1 µM
CCN1CCC[C@@H](Nc2nnc(-c3ccc(C(F)(F)F)cc3OC(F)(F)F)c3cncn23)C1 [Compound 229, N-[(3R)-1-ethylpiperidin-3-yl]-1-[2-(trifluoromethoxy)-4-(trifluoromethyl)phenyl]imidazo[1,5-d][1,2,4]triazin-4-amine]	< 0.001 µM
COc1cccc(C(C)Nc2nnc(-c3ccc(OC)cc3OC(F)(F)F)c3cncn23)c1 (stereo not drawn) [Compound 230, N-[1-(3-methoxyphenyl)ethyl]-1-[4-methoxy-2-(trifluoromethoxy)phenyl]imidazo[1,5-d][1,2,4]triazin-4-amine]	≥ 0.3 µM
COc1ccc(-c2nnc(NC(C)c3ccccc3)n3cncc23)c(OC(F)(F)F)c1 (stereo not drawn) [Compound 231, 1-[4-methoxy-2-(trifluoromethoxy)phenyl]-N-(1-phenylethyl)imidazo[1,5-d][1,2,4]triazin-4-amine]	≥ 0.3 µM
COc1ccc(-c2nnc(NC(C)c3cccnc3)n3cncc23)c(OC(F)(F)F)c1 (stereo not drawn) [Compound 232, 1-[4-methoxy-2-(trifluoromethoxy)phenyl]-N-[1-(pyridin-3-yl)ethyl]imidazo[1,5-d][1,2,4]triazin-4-amine]	0.1 to 0.3 µM

Structure (SMILES)	IC50
COc1ccc(-c2nnc(NCc3cccc(O)c3)n3cncc23)c(OC(F)(F)F)c1 [Compound 233, 3-[{{1-[4-methoxy-2-(trifluoromethoxy)phenyl]imidazo[1,5-d][1,2,4]triazin-4-yl}amino)methyl]phenol]	0.001 to 0.01 µM
COc1ccc(-c2nnc(NCc3cc[nH]n3)n3cncc23)c(OC(F)(F)F)c1 [Compound 234, 1-[4-methoxy-2-(trifluoromethoxy)phenyl]-N-[(1H-pyrazol-3-yl)methyl]imidazo[1,5-d][1,2,4]triazin-4-amine]	0.01 to 0.1 µM
COc1ccc(-c2nnc(NC3CCNC3=O)n3cncc23)c(C(F)(F)F)c1 (stereo not drawn) [Compound 235, 3-({1-[4-methoxy-2-(trifluoromethyl)phenyl]imidazo[1,5-d][1,2,4]triazin-4-yl}amino)pyrrolidin-2-one]	0.001 to 0.01 µM
COc1ccc(-c2nnc(N[C@H]3C[C@@](C)(O)C3)n3cncc23)c(CC(F)(F)F)c1 [Compound 236, (1s,3s)-3-({1-[4-methoxy-2-(2,2,2-trifluoroethyl)phenyl]imidazo[1,5-d][1,2,4]triazin-4-yl}amino)-1-methylcyclobutan-1-ol]	0.001 to 0.01 µM
COc1ccc(-c2nnc(N[C@@H]3CCCC[C@H]3O)n3cncc23)c(CC(F)(F)F)c1 [Compound 237, (1R,2R)-2-({1-[4-methoxy-2-(2,2,2-trifluoroethyl)phenyl]imidazo[1,5-d][1,2,4]triazin-4-yl}amino)cyclohexan-1-ol]	0.001 to 0.01 µM
COc1ccc(-c2nnc(NC3CCNC3=O)n3cncc23)c(CC(F)(F)F)c1 (stereo not drawn) [Compound 238, 3-({1-[4-methoxy-2-(2,2,2-trifluoroethyl)phenyl]imidazo[1,5-d][1,2,4]triazin-4-yl}amino)pyrrolidin-2-one]	0.001 to 0.01 µM
OCCN1CCC[C@@H](Nc2nnc(-c3ccc(C(F)(F)F)cc3OC(F)(F)F)c3cncn23)C1 [Compound 239, 2-[(3R)-3-({1-[2-(trifluoromethoxy)-4-(trifluoromethyl)phenyl]imidazo[1,5-d][1,2,4]triazin-4-yl}amino)piperidin-1-yl]ethan-1-ol]	< 0.001 µM
O[C@H]1CCC[C@@H](Nc2nnc(-c3ccc(C(F)(F)F)cc3OC(F)(F)F)c3cncn23)C1 [Compound 240, (1S,3R)-3-({1-[2-(trifluoromethoxy)-4-(trifluoromethyl)phenyl]imidazo[1,5-d][1,2,4]triazin-4-yl}amino)cyclohexan-1-ol]	< 0.001 µM
C[C@]1(O)C[C@@H](Nc2nnc(-c3ccc(C(F)(F)F)cc3OC(F)(F)F)c3cncn23)C1 [Compound 241, (1s,3s)-1-methyl-3-({1-[2-(trifluoromethoxy)-4-(trifluoromethyl)phenyl]imidazo[1,5-d][1,2,4]triazin-4-yl}amino)cyclobutan-1-ol]	< 0.001 µM
O[C@@H]1CCCC[C@H]1Nc1nnc(-c2ccc(C(F)(F)F)cc2OC(F)(F)F)c2cncn12 [Compound 242, (1R,2R)-2-({1-[2-(trifluoromethoxy)-4-(trifluoromethyl)phenyl]imidazo[1,5-d][1,2,4]triazin-4-yl}amino)cyclohexan-1-ol]	< 0.001 µM
O[C@@H]1CCCC[C@H]1Nc1nnc(-c2ccc(C(F)(F)F)cc2C(F)(F)F)c2cncn12 [Compound 243, (1R,2R)-2-({1-[2,4-bis(trifluoromethyl)phenyl]imidazo[1,5-d][1,2,4]triazin-4-yl}amino)cyclohexan-1-ol]	< 0.001 µM
C[C@]1(O)C[C@@H](Nc2nnc(-c3ccc(OC(F)F)cc3OC(F)(F)F)c3cncn23)C1 [Compound 244, (1s,3s)-3-({1-[4-(difluoromethoxy)-2-(trifluoromethoxy)phenyl]imidazo[1,5-d][1,2,4]triazin-4-yl}amino)-1-methylcyclobutan-1-ol]	< 0.001 µM
O[C@H]1CCC[C@@H](Nc2nnc(-c3ccc(OC(F)F)cc3OC(F)(F)F)c3cncn23)C1 [Compound 245, (1S,3R)-3-({1-[4-(difluoromethoxy)-2-(trifluoromethoxy)phenyl]imidazo[1,5-d][1,2,4]triazin-4-yl}amino)cyclohexan-1-ol]	0.001 to 0.01 µM
O[C@@H]1CCCC[C@H]1Nc1nnc(-c2ccc(OC(F)F)cc2OC(F)(F)F)c2cncn12 [Compound 246, (1R,2R)-2-({1-[4-(difluoromethoxy)-2-(trifluoromethoxy)phenyl]imidazo[1,5-d][1,2,4]triazin-4-yl}amino)cyclohexan-1-ol]	< 0.001 µM
COc1ccc(-c2nnc(N[C@@H]3CCOC[C@H]3O)n3cncc23)c(CC(F)(F)F)c1 [Compound 249, (3S,4R)-4-({1-[4-methoxy-2-(2,2,2-trifluoroethyl)phenyl]imidazo[1,5-d][1,2,4]triazin-4-yl}amino)oxan-3-ol]	0.001 to 0.01 µM
COc1ccc(-c2nnc(N[C@@H]3CCCN(C)C3)n3cncc23)c(CC(F)(F)F)c1 [Compound 250, 1-[4-methoxy-2-(2,2,2-trifluoroethyl)phenyl]-N-[(3R)-1-methylpiperidin-3-yl]imidazo[1,5-d][1,2,4]triazin-4-amine]	< 0.001 µM
